Results as given in patent US20240043435A1, “TYK-2 INHIBITOR” (BEIGENE, LTD., priority 2020, published 2024).
pIC50: −log10 of the molar value.

How the values were obtained:
[1] = tested on: JAK2, TYK2/p-STAT4 (Tyr693) activated by IL-12 in NK-92 cell line; assay: IL-12-JAK2, TYK2/p-STAT4 (Tyr693) inhibition IC50 cellular assay; type: cell-based; details: for Selectivity fold (TYK2/JAK2): Cellular assay, pSTAT5/GM-CSF IC50 vs pSTAT4/IL-12 IC50; for pIC50: NK92, Cellular assay, read-out: pSTAT4/IL-12 IC50
Method in brief: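 NK-92 cells were starved overnight without IL-2 and preincubated 1 h at 37° C with compound (8 doses, 10000–0.61 nM, 4-fold, 0.2% DMSO). They were then stimulated with IL-12 (40 ng/ml final) for 30 min. Lysate p-STAT4 (Tyr693) was read by AlphaLISA SureFire; IC50 from four-parameter logistic fit.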

[2] = target: T1, TYK2-JH2 (aa 575-869, in-house) protein (Homo sapiens, UniProt P29597); assay: TYK2-JH2 biochemical assay (HTRF probe displacement); type: binding; details: Biochemical assay; read-out: TYK2-JH2 IC50
T1 construct: TYK2-JH2 (aa 575-869, in-house) protein; made in house
T1 sequence (P29597 575-869): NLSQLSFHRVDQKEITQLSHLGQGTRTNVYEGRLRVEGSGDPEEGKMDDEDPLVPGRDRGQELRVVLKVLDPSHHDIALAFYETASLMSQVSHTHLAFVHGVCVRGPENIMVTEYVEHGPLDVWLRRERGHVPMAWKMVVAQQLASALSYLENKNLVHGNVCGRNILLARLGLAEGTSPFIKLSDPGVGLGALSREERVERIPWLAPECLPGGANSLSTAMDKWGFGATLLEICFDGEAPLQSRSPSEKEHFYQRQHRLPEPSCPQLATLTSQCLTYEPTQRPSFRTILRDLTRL
Method in brief: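 Recombinant TYK2-JH2 (0.2 nM) was pre-incubated 0.5 h at room temperature with compounds (10 doses, 5-fold dilution; 500× DMSO stocks from 500 uM) in 20 mM HEPES pH 7.5, 10 mM MgCl2, 0.005% BSA, 2 mM DTT, 0.015% Brij-35. Probe displacement was read by HTRF (ex337, em620/665 nm); IC50 from four-parameter logistic fit.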

[3] = tested on: pSTAT5/GM-CSF; assay: pSTAT5/GM-CSF cellular assay (JAK2 selectivity); type: cell-based

Row | Structure (SMILES) | Selectivity fold (TYK2/JAK2) [1] [fold] | pIC50 [1] | pIC50 [2] | pIC50 [3]
1 | CC(=O)Nc1cc(Nc2cccc(S(C)(=O)=O)n2)c(-c2ccc(C(C)(C)O)cn2)cn1 [Example H5, N-(5-(2-hydroxypropan-2-yl)-4′-((6-(methylsulfonyl)pyridin-2-yl)amino)-[2,3′-bipyridin]-6′-yl)acetamide] | 5185 | 9.49 | 10.82 | 5.78
2 | COCCOc1cc(Nc2cc(NC(C)=O)ncc2-c2ccc(C(C)(C)O)cn2)nc(S(C)(=O)=O)c1 [Example H6, N-(5-(2-hydroxypropan-2-yl)-4′-((4-(2-methoxyethoxy)-6-(methylsulfonyl)pyridin-2-yl)amino)-[2,3′-bipyridin]-6′-yl)acetamide] | 7097 | 8.90 | 10.85 | 5.05
3 | COC(C)COc1cc(Nc2cc(NC(C)=O)ncc2-c2ccc(C(C)(C)O)cn2)nc(S(C)(=O)=O)c1 (stereo not shown) [Example H7, N-(5-(2-hydroxypropan-2-yl)-4′-((4-(2-methoxypropoxy)-6-(methylsulfonyl)pyridin-2-yl)amino)-[2,3′-bipyridin]-6′-yl)acetamide] | >8196 | 8.91 | 10.34 | < 5.00
4 | CC(=O)Nc1cc(Nc2cc(OCCO)cc(S(C)(=O)=O)n2)c(-c2ccc(C(C)(C)O)cn2)cn1 [Example H8, N-(4′-((4-(2-hydroxyethoxy)-6-(methylsulfonyl)pyridin-2-yl)amino)-5-(2-hydroxypropan-2-yl)-[2,3′-bipyridin]-6′-yl)acetamide] | >461 | 7.66 | 10.39 | < 5.00
5 | CC(=O)Nc1cc(Nc2cc(C)cc(S(C)(=O)=O)n2)c(-c2ccc(C(C)(C)O)cn2)cn1 [Example H9, N-(5-(2-hydroxypropan-2-yl)-4′-((4-methyl-6-(methylsulfonyl)pyridin-2-yl)amino)-[2,3′-bipyridin]-6′-yl)acetamide] | 3147 | 9.30 | 10.80 | 5.80
6 | CC(=O)Nc1cc(Nc2cc(O[C@H]3C[C@H](O)C3)cc(S(C)(=O)=O)n2)c(-c2ccc(C(C)(C)O)cn2)cn1 [Example H10] | >607 | 7.78 | 10.77 | < 5.00
7 | CC(=O)Nc1cc(Nc2cc(OCC3COC3)cc(S(C)(=O)=O)n2)c(-c2ccc(C(C)(C)O)cn2)cn1 [Example H12, N-(5-(2-hydroxypropan-2-yl)-4′-((6-(methylsulfonyl)-4-(oxetan-3-ylmethoxy)pyridin-2-yl)amino)-[2,3′-bipyridin]-6′-yl)acetamide] | >1960 | 8.29 | 10.66 | < 5.00
8 | COCc1cc(Nc2cc(NC(C)=O)ncc2-c2ccc(C(C)(C)O)cn2)nc(S(C)(=O)=O)c1 [Example H13, N-(5-(2-hydroxypropan-2-yl)-4′-((4-(methoxymethyl)-6-(methylsulfonyl)pyridin-2-yl)amino)-[2,3′-bipyridin]-6′-yl)acetamide] | 6028 | 9.17 | 10.38 | 5.39
9 | CC(=O)Nc1cc(Nc2cc(C#N)cc(S(C)(=O)=O)n2)c(-c2ccc(C(C)(C)O)cn2)cn1 [Example H14, N-(4′-((4-cyano-6-(methylsulfonyl)pyridin-2-yl)amino)-5-(2-hydroxypropan-2-yl)-[2,3′-bipyridin]-6′-yl)acetamide] | >13755 | 9.14 | 10.47 | < 5.00
10 | COCCOc1cc(Nc2cc(NC(C)=O)ncc2-c2ccc(C(C)(C)O)cn2)cc(S(C)(=O)=O)c1 [Example H15, N-(5-(2-hydroxypropan-2-yl)-4′-((3-(2-methoxyethoxy)-5-(methylsulfonyl)phenyl)amino)-[2,3′-bipyridin]-6′-yl)acetamide] | >2044 | 8.31 | 10.54 | < 5.00
11 | COCc1cc(Nc2cc(NC(C)=O)ncc2-c2ccc(C(C)(C)O)cn2)cc(S(C)(=O)=O)c1 [Example H16, N-(5-(2-hydroxypropan-2-yl)-4′-((3-(methoxymethyl)-5-(methylsulfonyl)phenyl)amino)-[2,3′-bipyridin]-6′-yl)acetamide] | >1331 | 8.12 | 10.55 | < 5.00
12 | CC(=O)Nc1cc(Nc2cc(N3CCC(O)C3)cc(S(C)(=O)=O)c2)c(-c2ccc(C(C)(C)O)cn2)cn1 (stereo not shown) [Example H17, N-(5-(2-hydroxypropan-2-yl)-4′-((3-(3-hydroxypyrrolidin-1-yl)-5-(methylsulfonyl)phenyl)amino)-[2,3′-bipyridin]-6′-yl)acetamide] | >149 | 7.17 | 10.47 | < 5.00
13 | CC(=O)Nc1cc(Nc2cc(OC(F)(F)F)cc(S(C)(=O)=O)c2)c(-c2ccc(C(C)(C)O)cn2)cn1 [Example H18, N-(5-(2-hydroxypropan-2-yl)-4′-((3-(methylsulfonyl)-5-(trifluoromethoxy)phenyl)amino)-[2,3′-bipyridin]-6′-yl)acetamide] | >1805 | 8.26 | 10.49 | < 5.00
14 | CC(=O)Nc1cc(Nc2cc(F)cc(S(C)(=O)=O)c2)c(-c2ccc(C(C)(C)O)cn2)cn1 [Example H19, N-(4′-((3-fluoro-5-(methylsulfonyl)phenyl)amino)-5-(2-hydroxypropan-2-yl)-[2,3′-bipyridin]-6′-yl)acetamide] | >3125 | 8.49 | 10.55 | < 5.00
15 | CC(=O)Nc1cc(Nc2cc(C#N)cc(S(C)(=O)=O)c2)c(-c2ccc(C(C)(C)O)cn2)cn1 [Example H20, N-(4′-((3-cyano-5-(methylsulfonyl)phenyl)amino)-5-(2-hydroxypropan-2-yl)-[2,3′-bipyridin]-6′-yl)acetamide] | >284 | 7.45 | 10.34 | < 5.00
16 | CC(=O)Nc1cc(Nc2cc(C)cc(S(C)(=O)=O)c2)c(-c2ccc(C(C)(C)O)cn2)cn1 [Example H21, N-(5-(2-hydroxypropan-2-yl)-4′-((3-methyl-5-(methylsulfonyl)phenyl)amino)-[2,3′-bipyridin]-6′-yl)acetamide] | >4464 | 8.65 | 10.62 | < 5.00
17 | CC(=O)Nc1cc(Nc2cc(OCC3CC3)cc(S(C)(=O)=O)c2)c(-c2ccc(C(C)(C)O)cn2)cn1 [Example H22, N-(4′-((3-(cyclopropylmethoxy)-5-(methylsulfonyl)phenyl)amino)-5-(2-hydroxypropan-2-yl)-[2,3′-bipyridin]-6′-yl)acetamide] | >3623 | 8.56 | 10.42 | < 5.00
18 | CC(=O)Nc1cc(Nc2cc(OC3CC3)cc(S(C)(=O)=O)c2)c(-c2ccc(C(C)(C)O)cn2)cn1 [Example H23, N-(4′-((3-cyclopropoxy-5-(methylsulfonyl)phenyl)amino)-5-(2-hydroxypropan-2-yl)-[2,3′-bipyridin]-6′-yl)acetamide] | >1754 | 8.24 | 10.47 | < 5.00
19 | CC(=O)Nc1cc(Nc2cc(OC(C)C)cc(S(C)(=O)=O)c2)c(-c2ccc(C(C)(C)O)cn2)cn1 [Example H24, N-(5-(2-hydroxypropan-2-yl)-4′-((3-isopropoxy-5-(methylsulfonyl)phenyl)amino)-[2,3′-bipyridin]-6′-yl)acetamide] | >1855 | 8.27 | 10.47 | < 5.00
20 | CC(=O)Nc1cc(Nc2cc(C(F)F)cc(S(C)(=O)=O)c2)c(-c2ccc(C(C)(C)O)cn2)cn1 [Example H25, N-(4′-((3-(difluoromethyl)-5-(methylsulfonyl)phenyl)amino)-5-(2-hydroxypropan-2-yl)-[2,3′-bipyridin]-6′-yl)acetamide] | >1328 | 8.12 | 10.42 | < 5.00
21 | CC(=O)Nc1cc(Nc2cc(OCC(C)O)cc(S(C)(=O)=O)n2)c(-c2ccc(C(C)(C)O)cn2)cn1 (stereo not shown) [Example H26, N-(5-(2-hydroxypropan-2-yl)-4′-((4-(2-hydroxypropoxy)-6-(methylsulfonyl)pyridin-2-yl)amino)-[2,3′-bipyridin]-6′-yl)acetamide] | >854 | 7.93 | 10.41 | < 5.00
22 | CC(=O)Nc1cc(Nc2cc(OC3COC3)cc(S(C)(=O)=O)n2)c(-c2ccc(C(C)(C)O)cn2)cn1 [Example H27, N-(5-(2-hydroxypropan-2-yl)-4′-((6-(methylsulfonyl)-4-(oxetan-3-yloxy)pyridin-2-yl)amino)-[2,3′-bipyridin]-6′-yl)acetamide] | >3676 | 8.57 | 10.51 | < 5.00
